Laboratory results as given in BindingDB's records for patent US12419873 (Zhuhai United Laboratories Co., 2025).

Columns and labels:
[1] = biological target: Non-receptor tyrosine-protein kinase TYK2 (Homo sapiens, UniProt P29597); test: TYK2 (h) Enzyme Reaction
Procedure: (§1) Mg/ATP mixture was added to start the reaction. After incubation at room temperature for 40 minutes, 0.5% phosphoric acid was added to stop the reaction.

[2] = biological target: Tyrosine-protein kinase JAK1 (Homo sapiens, UniProt P23458); test: JAK1 (h) Enzyme Reaction
Procedure: as §1

[3] = biological target: Tyrosine-protein kinase JAK2 (Homo sapiens, UniProt O60674); test: JAK2 (h) Enzyme Reaction
Procedure: as §1

[4] = biological target: T1, Tyrosine-protein kinase JAK3 (Homo sapiens, UniProt P52333); test: JAK3 (h) Enzyme Reaction
T1 sequence (P52333 whole entry): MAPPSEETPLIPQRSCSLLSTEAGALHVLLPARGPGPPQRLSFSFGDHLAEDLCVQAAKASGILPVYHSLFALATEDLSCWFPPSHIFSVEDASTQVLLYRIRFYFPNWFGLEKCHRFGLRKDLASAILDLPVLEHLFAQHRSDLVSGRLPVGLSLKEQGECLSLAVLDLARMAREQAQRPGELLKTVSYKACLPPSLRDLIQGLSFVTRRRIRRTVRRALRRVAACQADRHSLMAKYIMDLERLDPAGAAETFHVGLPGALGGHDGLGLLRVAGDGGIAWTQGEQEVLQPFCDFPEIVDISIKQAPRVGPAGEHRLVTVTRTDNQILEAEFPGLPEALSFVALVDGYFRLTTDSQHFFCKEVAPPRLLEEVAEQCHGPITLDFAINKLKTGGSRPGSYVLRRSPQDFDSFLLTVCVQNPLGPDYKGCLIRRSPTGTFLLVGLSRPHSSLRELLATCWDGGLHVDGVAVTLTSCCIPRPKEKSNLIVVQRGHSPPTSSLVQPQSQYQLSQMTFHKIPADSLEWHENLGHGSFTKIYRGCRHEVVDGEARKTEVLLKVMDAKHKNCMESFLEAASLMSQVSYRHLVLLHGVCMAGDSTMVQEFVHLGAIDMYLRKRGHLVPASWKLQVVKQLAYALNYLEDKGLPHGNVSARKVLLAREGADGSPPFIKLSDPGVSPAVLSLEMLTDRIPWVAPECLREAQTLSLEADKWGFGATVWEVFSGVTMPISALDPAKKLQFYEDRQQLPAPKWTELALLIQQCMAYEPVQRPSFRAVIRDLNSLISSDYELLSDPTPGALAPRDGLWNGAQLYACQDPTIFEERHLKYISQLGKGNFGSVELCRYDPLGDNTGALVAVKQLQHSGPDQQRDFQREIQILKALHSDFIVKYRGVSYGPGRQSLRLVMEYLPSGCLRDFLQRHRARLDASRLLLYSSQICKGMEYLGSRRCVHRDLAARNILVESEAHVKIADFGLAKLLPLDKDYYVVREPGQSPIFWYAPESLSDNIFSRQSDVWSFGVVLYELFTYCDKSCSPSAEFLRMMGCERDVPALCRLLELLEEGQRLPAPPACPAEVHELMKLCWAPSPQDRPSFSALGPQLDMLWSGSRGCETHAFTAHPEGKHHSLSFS
Procedure: as §1

Sequence of Tyrosine-protein kinase JAK1 (P23458 whole entry): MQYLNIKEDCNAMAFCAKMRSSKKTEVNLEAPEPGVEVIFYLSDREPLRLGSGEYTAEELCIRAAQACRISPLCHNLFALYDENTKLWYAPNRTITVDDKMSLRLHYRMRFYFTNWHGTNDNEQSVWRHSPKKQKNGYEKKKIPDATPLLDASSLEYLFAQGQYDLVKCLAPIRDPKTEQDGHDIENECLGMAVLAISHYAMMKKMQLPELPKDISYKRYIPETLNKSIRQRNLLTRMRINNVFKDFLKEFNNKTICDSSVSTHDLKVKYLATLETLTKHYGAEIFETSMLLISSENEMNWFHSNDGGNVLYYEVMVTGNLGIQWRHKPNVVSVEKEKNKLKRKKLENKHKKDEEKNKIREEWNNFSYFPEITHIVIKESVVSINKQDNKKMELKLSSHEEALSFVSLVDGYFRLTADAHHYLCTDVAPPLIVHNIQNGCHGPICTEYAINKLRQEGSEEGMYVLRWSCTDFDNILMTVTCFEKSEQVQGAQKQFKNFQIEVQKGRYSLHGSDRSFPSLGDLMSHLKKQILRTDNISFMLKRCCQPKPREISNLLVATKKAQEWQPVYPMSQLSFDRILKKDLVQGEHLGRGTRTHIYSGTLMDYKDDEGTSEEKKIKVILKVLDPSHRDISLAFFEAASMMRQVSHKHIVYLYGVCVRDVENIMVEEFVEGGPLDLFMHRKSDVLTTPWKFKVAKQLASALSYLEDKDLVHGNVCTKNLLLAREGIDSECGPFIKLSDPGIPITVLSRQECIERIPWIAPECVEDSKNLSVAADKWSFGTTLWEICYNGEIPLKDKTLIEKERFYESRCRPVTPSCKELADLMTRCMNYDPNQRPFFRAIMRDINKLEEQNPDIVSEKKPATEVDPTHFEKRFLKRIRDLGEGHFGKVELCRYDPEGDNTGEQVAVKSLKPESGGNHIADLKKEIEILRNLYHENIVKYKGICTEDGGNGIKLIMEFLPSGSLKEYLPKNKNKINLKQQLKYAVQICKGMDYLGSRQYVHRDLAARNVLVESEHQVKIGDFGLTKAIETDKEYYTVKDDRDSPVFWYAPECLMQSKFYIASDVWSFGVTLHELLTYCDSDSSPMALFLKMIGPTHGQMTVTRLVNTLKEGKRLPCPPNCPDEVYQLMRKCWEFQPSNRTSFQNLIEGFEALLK
Sequence of Non-receptor tyrosine-protein kinase TYK2 (P29597 whole entry): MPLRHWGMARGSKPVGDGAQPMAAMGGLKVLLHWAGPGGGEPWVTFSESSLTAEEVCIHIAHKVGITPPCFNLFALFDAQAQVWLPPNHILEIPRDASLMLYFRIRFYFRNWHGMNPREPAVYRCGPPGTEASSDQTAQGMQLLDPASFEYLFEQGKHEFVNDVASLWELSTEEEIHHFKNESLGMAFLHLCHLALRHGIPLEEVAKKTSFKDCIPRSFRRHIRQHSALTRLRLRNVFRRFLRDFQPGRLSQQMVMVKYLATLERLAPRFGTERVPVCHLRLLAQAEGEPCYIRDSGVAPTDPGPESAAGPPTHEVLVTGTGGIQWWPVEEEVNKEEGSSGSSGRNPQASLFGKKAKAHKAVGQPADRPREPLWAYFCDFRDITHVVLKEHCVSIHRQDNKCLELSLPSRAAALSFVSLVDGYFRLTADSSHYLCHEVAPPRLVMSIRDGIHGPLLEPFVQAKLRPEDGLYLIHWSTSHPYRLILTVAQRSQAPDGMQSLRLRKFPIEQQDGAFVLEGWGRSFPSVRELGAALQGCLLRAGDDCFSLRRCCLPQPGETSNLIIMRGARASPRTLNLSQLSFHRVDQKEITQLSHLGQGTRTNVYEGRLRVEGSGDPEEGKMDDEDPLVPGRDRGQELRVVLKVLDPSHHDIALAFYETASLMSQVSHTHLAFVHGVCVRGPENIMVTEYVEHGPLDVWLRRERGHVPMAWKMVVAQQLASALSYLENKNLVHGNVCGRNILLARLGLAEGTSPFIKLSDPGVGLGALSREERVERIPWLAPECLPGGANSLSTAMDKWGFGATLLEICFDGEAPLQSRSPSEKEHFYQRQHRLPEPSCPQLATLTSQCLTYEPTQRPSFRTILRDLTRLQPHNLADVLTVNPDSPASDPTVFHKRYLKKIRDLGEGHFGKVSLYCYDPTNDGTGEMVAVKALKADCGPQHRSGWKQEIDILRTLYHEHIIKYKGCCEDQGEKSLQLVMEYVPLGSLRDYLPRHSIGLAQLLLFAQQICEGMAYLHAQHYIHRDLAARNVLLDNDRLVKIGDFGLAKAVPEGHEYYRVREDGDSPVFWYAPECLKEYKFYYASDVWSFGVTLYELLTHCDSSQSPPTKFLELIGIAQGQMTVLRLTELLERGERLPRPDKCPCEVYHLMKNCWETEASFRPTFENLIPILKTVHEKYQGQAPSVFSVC
Sequence of Tyrosine-protein kinase JAK2 (O60674 whole entry): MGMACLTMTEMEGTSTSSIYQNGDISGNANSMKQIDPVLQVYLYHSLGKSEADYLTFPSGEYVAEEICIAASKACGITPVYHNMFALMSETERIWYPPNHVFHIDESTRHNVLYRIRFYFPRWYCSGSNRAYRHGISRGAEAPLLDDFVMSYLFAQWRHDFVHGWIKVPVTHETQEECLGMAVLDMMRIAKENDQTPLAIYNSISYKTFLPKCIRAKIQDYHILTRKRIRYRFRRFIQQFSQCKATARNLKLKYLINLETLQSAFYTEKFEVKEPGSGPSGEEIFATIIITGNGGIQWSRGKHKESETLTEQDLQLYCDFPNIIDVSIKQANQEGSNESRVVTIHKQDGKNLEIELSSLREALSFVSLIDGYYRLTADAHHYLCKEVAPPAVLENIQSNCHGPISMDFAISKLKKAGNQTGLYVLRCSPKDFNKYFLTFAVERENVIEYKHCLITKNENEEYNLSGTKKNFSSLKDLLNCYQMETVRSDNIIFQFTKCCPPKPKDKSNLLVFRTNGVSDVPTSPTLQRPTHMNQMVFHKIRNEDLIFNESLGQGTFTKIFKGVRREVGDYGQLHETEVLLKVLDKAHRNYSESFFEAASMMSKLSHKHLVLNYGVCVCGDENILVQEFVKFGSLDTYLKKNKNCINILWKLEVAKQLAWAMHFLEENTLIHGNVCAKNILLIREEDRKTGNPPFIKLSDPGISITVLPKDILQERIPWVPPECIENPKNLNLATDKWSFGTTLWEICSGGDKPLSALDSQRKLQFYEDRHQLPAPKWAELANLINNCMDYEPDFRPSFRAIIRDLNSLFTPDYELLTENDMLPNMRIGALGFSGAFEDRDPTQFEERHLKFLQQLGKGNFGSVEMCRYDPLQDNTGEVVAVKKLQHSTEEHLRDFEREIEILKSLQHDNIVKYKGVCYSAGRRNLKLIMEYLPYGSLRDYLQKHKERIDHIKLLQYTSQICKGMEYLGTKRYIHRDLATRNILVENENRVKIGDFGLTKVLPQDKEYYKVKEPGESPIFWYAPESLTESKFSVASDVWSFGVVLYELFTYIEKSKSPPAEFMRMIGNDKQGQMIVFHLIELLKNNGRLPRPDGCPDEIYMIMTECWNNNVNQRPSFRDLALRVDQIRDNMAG

N#CCC(=O)N1CC2(CCC(c3cccc4nc(NC(=O)[C@@H]5CC5(F)F)nn34)CC2)C1 [US12419873, Compound 9-5]
IC50 [1]: 175 nM
IC50 [2]: 224 nM
IC50 [3]: 624 nM
IC50 [4]: > 10000 nM
